# Several values for one entry are separate records, joined by “and”; a condition that tells them apart may be missing. Equal entries are not always repeated. Where two headings read alike, the source gives them in different places.
# Molecular target: fully phosphorylated, active Mouse ERK2 protein (Mus musculus (Mouse), UniProt P63085)
# Assay: Active ERK2 Assay (IMAP format)
# Format: biochemical
# Procedure: Activated ERK2 activity was also determined in the IMAP assay format using the procedure outlined above. […] Reactions proceeded for 30 minutes before termination by addition of 60 μl IMAP detection beads in binding buffer. Plates were read as above after 30 minute binding equilibration.
# Sequence of fully phosphorylated, active Mouse ERK2 protein (P63085 whole entry): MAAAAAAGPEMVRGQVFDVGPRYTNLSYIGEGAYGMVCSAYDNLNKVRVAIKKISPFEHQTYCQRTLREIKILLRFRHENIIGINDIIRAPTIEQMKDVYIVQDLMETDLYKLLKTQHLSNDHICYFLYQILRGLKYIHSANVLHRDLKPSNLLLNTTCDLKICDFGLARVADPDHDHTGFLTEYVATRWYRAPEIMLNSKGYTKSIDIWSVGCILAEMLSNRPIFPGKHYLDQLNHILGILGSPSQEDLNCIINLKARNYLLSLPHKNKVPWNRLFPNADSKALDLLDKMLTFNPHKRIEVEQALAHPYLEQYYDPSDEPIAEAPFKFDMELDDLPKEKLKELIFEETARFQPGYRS
Structure (SMILES),IC50 (read-out: AERK2 IC50),IC50 (AERK2 IC50) [pM]
"O=C(Nc1ccc2[nH]nc(-c3ccc(F)cc3)c2c1)[C@@H]1CCN(CC(=O)N2CCN(c3ccc(-c4ncccn4)cc3)CC2)C1 (stereo in doubt) [Example 1, 1-{2-Oxo-2-[4-(4-pyrimidin-2-yl-phenyl)-piperazin-1-yl]-ethyl}-pyrrolidine-3-carboxylic acid [3-(4-fluoro-phenyl)-1H-indazol-5-yl]-amide]",160 to 18000 pM,
"O=C(Nc1ccc2[nH]nc(-c3c[nH]cn3)c2c1)[C@@H]1CCN(CC(=O)N2CCN(c3ccc(-c4ncccn4)cc3)CC2)C1 (stereo in doubt) [Example 61, 1-{2-Oxo-2-[4-(4-pyrimidin-2-yl-phenyl)-piperazin-1-yl]-ethyl}-pyrrolidine-3-carboxylic acid [3-(1H-imidazol-4-yl)-1H-indazol-5-yl]-amide]",160 to 18000 pM,
"CC(=O)N/N=C(\C)C1(C(=O)Nc2ccc3[nH]nc(-c4ccc(F)cc4)c3c2)CCN(CC(=O)N2CCN(c3ccc(-c4ncccn4)cn3)C[C@H]2C)C1 (stereo in doubt) [Example 358, 3-[1-(Acetyl-hydrazono)-ethyl]-1-{2-[2-methyl-4-(5-pyrimidin-2-yl-pyridin-2-yl)-piperazin-1-yl]-2-oxo-ethyl}-pyrrolidine-3-carboxylic acid [3-(4-fluoro-phenyl)-1H-indazol-5-yl]-amide]",160 to 18000 pM,
"Cc1cnc(-c2ccc(N3CCN(C(=O)CN4CCC(NC=O)(C(=O)Nc5ccc6[nH]nc(-c7ccc(F)cc7)c6c5)C4)[C@H](C)C3)cc2)nc1 (stereo in doubt) [Example 362, 3-Formylamino-1-(2-{2-methyl-4-[4-(5-methyl-pyrimidin-2-yl)-phenyl]-piperazin-1-yl}-2-oxo-ethyl)-pyrrolidine-3-carboxylic acid [3-(4-fluoro-phenyl)-1H-indazol-5-yl]-amide]",160 to 18000 pM,
"CCNc1nnc(-c2ccc(C3CCN(C(=O)CN4CC[C@@](OC)(C(=O)Nc5ccc6[nH]nc(-c7ccc(F)cc7)c6c5)C4)CC3)cc2)o1 (stereo in doubt) [Example 623, 1-(2-{4-[4-(5-Ethylamino-[1,3,4]oxadiazol-2-yl)-phenyl]-piperidin-1-yl}-2-oxo-ethyl)-3-methoxy-pyrrolidine-3-carboxylic acid [3-(4-fluoro-phenyl)-1H-indazol-5-yl]-amide]",160 to 18000 pM,
"N#Cc1cccc(-c2n[nH]c3ccc(NC(=O)[C@@H]4CCN(CC(=O)N5CCN(c6ccc(-c7ncccn7)cc6)CC5)C4)cc23)c1 [Example 2, 1-{2-Oxo-2-[4-(4-pyrimidin-2-yl-phenyl)-piperazin-1-yl]-ethyl}-pyrrolidine-3-carboxylic acid[3-(3-cyano-phenyl)-1H-indazol-5-yl]-amide]",160 to 18000 pM,
O=C(Nc1ccc2[nH]nc(-c3ccncc3)c2c1)[C@@H]1CCN(CC(=O)N2CCN(c3ccc(-c4ncccn4)cc3)CC2)C1 [Example 6],,800
CCCCNC(=O)c1n[nH]c2ccc(NC(=O)[C@@H]3CCN(CC(=O)N4CCN(c5ccc(-c6ncccn6)cc5)CC4)C3)cc12 [Example 86],160 to 18000 pM,
O=C(Nc1ccc2[nH]nc(-c3ccc(F)cc3)c2c1)C1CCN(CC(=O)N2CCN(c3ccc(-c4ncccn4)cn3)CC2)C1 (stereo not shown) [Example 98],160 to 18000 pM,
C[C@@H]1CN(c2ccc(-c3ncccn3)cn2)CCN1C(=O)CN1CCC(C(=O)Nc2ccc3[nH]nc(-c4ccc(F)cc4)c3c2)C1 (stereo partly shown) [Example 100],160 to 18000 pM and 160 to 1500 pM,
Cc1cnc(-c2ccc(N3CCN(C(=O)CN4CCC(C(=O)Nc5ccc6[nH]nc(-c7ccc(F)cc7)c6c5)C4)[C@H](C)C3)cc2)nc1 (stereo partly shown) [Example 120],160 to 18000 pM,
"COCC1(C(=O)Nc2ccc3[nH]nc(-c4ccc(F)cc4)c3c2)CCN(CC(=O)N2CCN(c3ccc(-c4ncccn4)cc3)CC2)C1 (stereo not shown) [Example 125, 3-methoxymethyl-1-{2-oxo-2-[4-(4-pyrimidin-2-yl-phenyl)-piperazin-1-yl]-ethyl}-pyrrolidine-3-carboxylic acid [3-(4-fluoro-phenyl)-1H-indazol-5-yl]-amide]",160 to 18000 pM,
"CC(C)(C)OC(=O)N1CCC(O)(c2nccs2)CC1 [Example 132, 4-Hydroxy-4-thiazol-2-yl-piperidine-1-carboxylic acid tert-butyl ester]",160 to 18000 pM,
"CNC(=O)c1n[nH]c2ccc(NC(=O)C3CCN(CC(=O)N4CCC(C#Cc5ncccn5)CC4)C3)cc12 (stereo not shown) [Example 142, 5-({1-[2-oxo-2-(4-pyrimidin-2-ylethynyl-piperidin-1-yl)-ethyl]-pyrrolidine-3-carbonyl}-amino)-1H-indazole-3-carboxylic acid methylamide]",160 to 18000 pM,
CNC(=O)c1n[nH]c2ccc(NC(=O)[C@@H]3CCN(CC(=O)N4C[C@@H]5C[C@H]4CN5c4ccc(-c5ncccn5)cc4)C3)cc12 [Example 152],160 to 18000 pM,
CNC(=O)c1n[nH]c2ccc(NC(=O)[C@@H]3CCN(CC(=O)N4C[C@@H]5C[C@H]4CN5c4ccc(-c5ncc(C)cn5)cc4)C3)cc12 [Example 154],160 to 18000 pM,
CNC(=O)c1n[nH]c2ccc(NC(=O)[C@@H]3CCN(CC(=O)N4CC=C(c5nccs5)CC4)C3)cc12 [Example 168],160 to 18000 pM,
CNC(=O)c1n[nH]c2ccc(NC(=O)[C@@H]3CCN(CC(=O)N4CCC(c5ccc(-c6ncccn6)cc5)CC4)C3)cc12 [Example 176],160 to 18000 pM,
O=C(Nc1ccc2[nH]nc(-c3ccncc3)c2c1)[C@@H]1CCN(CC(=O)N2C[C@@H]3C[C@H]2CN3c2ccc(-c3ncc(F)cn3)cc2)C1 [Example 183],160 to 18000 pM and 160 to 1500 pM and 160 pM,
O=C(Nc1ccc2[nH]nc(-c3ccc(F)cc3)c2c1)[C@@H]1CCN(CC(=O)N2C[C@@H]3C[C@H]2CN3c2ccc(-c3ncccn3)cc2)C1 [Example 184],160 to 18000 pM and 160 to 1500 pM,
O=C(Nc1ccc2[nH]nc(-c3ccncc3)c2c1)[C@@H]1CCN(CC(=O)N2CCN(c3ccc(-c4ncc(F)cn4)cc3)CC2)C1 [Example 186],160 to 18000 pM and 160 to 1500 pM and 780 pM,
C=Cc1cnc(N2C[C@@H]3C[C@H]2CN3C(=O)CN2CC[C@@H](C(=O)Nc3ccc4[nH]nc(-c5ccncc5)c4c3)C2)nc1 [Example 250],160 to 18000 pM,
O=C(CN1CCC(CF)(C(=O)Nc2ccc3[nH]nc(-c4ccc(F)cc4)c3c2)C1)N1C[C@@H]2C[C@H]1CN2c1ccc(-c2ncccn2)cc1 (stereo partly shown) [Example 251],160 to 18000 pM,

Structure (SMILES),IC50 (read-out: AERK2 IC50),IC50 (AERK2 IC50) [pM]
C=CCC1(C(=O)Nc2ccc3[nH]nc(-c4ccncc4)c3c2)CCN(CC(=O)N2CCN(c3ccc(-c4cnccn4)cc3)CC2)C1 (stereo not shown) [Example 261],160 to 18000 pM and 160 to 1500 pM,
COCC1(C(=O)Nc2ccc3[nH]nc(-c4ccncc4)c3c2)CCN(CC(=O)N2CCN(c3ccc(-c4ncccn4)cc3)CC2)C1 (stereo not shown) [Example 264],160 to 18000 pM,
O=C(CN1CCC(CF)(C(=O)Nc2ccc3[nH]nc(-c4ccncc4)c3c2)C1)N1C[C@@H]2C[C@H]1CN2c1ccc(-c2ncccn2)cc1 (stereo partly shown) [Example 269],160 to 18000 pM,
C=CCC1(C(=O)Nc2ccc3[nH]nc(-c4ccncc4)c3c2)CCN(CC(=O)N2C[C@@H]3C[C@H]2CN3c2ccc(-c3ncc(F)cn3)cc2)C1 (stereo partly shown) [Example 271],160 to 18000 pM,
O=C(CN1CCC(CF)(C(=O)Nc2ccc3[nH]nc(-c4ccncc4)c3c2)C1)N1CCN(c2nccs2)CC1 (stereo not shown) [Example 282],160 to 18000 pM,
O=C(CN1CCC(CN2CCOCC2)(C(=O)Nc2ccc3[nH]nc(-c4ccncc4)c3c2)C1)N1CCN(c2nccs2)CC1 (stereo not shown) [Example 286],160 to 18000 pM,
C=CCC1(C(=O)Nc2ccc3[nH]nc(-c4ccncc4)c3c2)CCN(CC(=O)N2CCN(c3ccc(-c4ncccn4)cc3)CC2)C1 (stereo not shown) [Example 289],160 to 18000 pM,
CCCC1(C(=O)Nc2ccc3[nH]nc(-c4ccncc4)c3c2)CCN(CC(=O)N2CCN(c3ccc(-c4ncccn4)cc3)CC2)C1 (stereo not shown) [Example 290],160 to 18000 pM,
C#CCC1(C(=O)Nc2ccc3[nH]nc(-c4ccncc4)c3c2)CCN(CC(=O)N2CCN(c3ccc(-c4ncccn4)cc3)CC2)C1 (stereo not shown) [Example 292],160 to 18000 pM,
C=CCC1(C(=O)Nc2ccc3[nH]nc(-c4ccncc4)c3c2)CCN(CC(=O)N2CCN(c3ccc(-c4ncc(F)cn4)cc3)CC2)C1 (stereo not shown) [Example 294],160 to 18000 pM,
COCC1(C(=O)Nc2ccc3[nH]nc(-c4ccncc4)c3c2)CCN(CC(=O)N2CCN(c3ccc(-c4ncc(F)cn4)cc3)CC2)C1 (stereo not shown) [Example 302],160 to 18000 pM,
COCC1(C(=O)Nc2ccc3[nH]nc(-c4ccncc4)c3c2)CCN(CC(=O)N2C[C@@H]3C[C@H]2CN3c2ccc(-c3ncc(F)cn3)cc2)C1 (stereo partly shown) [Example 303],160 to 18000 pM,
COCC1(C(=O)Nc2ccc3[nH]nc(-c4ccncc4)c3c2)CCN(CC(=O)N2CCN(c3ccc(-c4ncccn4)cn3)C[C@H]2C)C1 (stereo partly shown) [Example 304],160 to 18000 pM,
COCC1(C(=O)Nc2ccc3[nH]nc(-c4ccncc4)c3c2)CCN(CC(=O)N2CC=C(c3nccs3)CC2)C1 (stereo not shown) [Example 306],160 to 18000 pM,
O=C(Nc1ccc2[nH]nc(-c3ccncc3)c2c1)[C@@H]1CCN(CC(=O)N2CCc3ccccc3C2)C1 [Example 332],160 to 18000 pM,
O=C(Nc1ccc2[nH]nc(-c3ccncc3)c2c1)[C@@H]1CCN(CC(=O)N2CCc3ncccc3C2)C1 [Example 333],160 to 18000 pM,
CSC1(C(=O)Nc2ccc3[nH]nc(-c4ccc(F)cc4)c3c2)CCN(CC(=O)N2CCN(c3ccc(-c4ncccn4)cc3)CC2)C1 (stereo not shown) [Example 338],160 to 18000 pM,
CCOC1(C(=O)Nc2ccc3[nH]nc(-c4ccnc(C)c4)c3c2)CCN(CC(=O)N2CCN(c3ccc(-c4ncccn4)cc3)CC2)C1 (stereo not shown) [Example 343],160 to 18000 pM,
CO[C@@]1(C(=O)Nc2ccc3[nH]nc(-c4ccc(F)cc4)c3c2)CCN(CC(=O)N2CC=C(c3ccc(-c4ncccn4)cc3F)CC2)C1 [Example 606],160 to 18000 pM,
CON(C(=O)[C@@H]1CCN(CC(=O)N2CC=C(c3ccc(-c4ncccn4)cc3)CC2)C1)c1ccc2[nH]nc(-c3ccncc3)c2c1 [Example 611],160 to 18000 pM,
CS(=O)(=O)[C@@]1(C(=O)Nc2ccc3[nH]nc(-c4ccnc(C5CC5)c4)c3c2)CCN(CC(=O)N2CC=C(c3ccc(-c4ncccn4)cc3)CC2)C1 [Example 634],160 to 18000 pM,
CS(=O)(=O)[C@@]1(C(=O)Nc2ccc3[nH]nc(-c4ccnc(C5CC5)c4)c3c2)CCN(CC(=O)N2CCC(c3ccc(-c4ncccn4)cc3)CC2)C1 [Example 635],160 to 18000 pM,
CS[C@@]1(C(=O)Nc2ccc3[nH]nc(-c4ccnc(C5CC5)c4)c3c2)CCN(CC(=O)N2CC=C(c3ccc(-c4ncccn4)cc3)CC2)C1 [Example 639],160 to 18000 pM,
